Laboratory results: PubChem BioAssay (NCI)
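Protocol summary: plate cells (96-well), add compound at 5 concentrations, incubate 48 h, interpolate endpoints linearly. Abbreviation: GI50, concentration required for 50% inhibition of growth. The concentration for full growth arrest is given as TGI.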

Tests used:
Experiment in all cases: NCI-60 cell line screen, 48 h
[1] = system: 786-0 renal
[2] = system: A498 renal
[3] = system: A549 NSCLC
[4] = system: ACHN renal
[5] = system: BT-549 breast
[6] = system: CAKI-1 renal
[7] = system: CCRF-CEM leukemia
[8] = system: COLO 205 colon
[9] = system: DU-145 prostate
[10] = system: EKVX NSCLC
[11] = system: HCC-2998 colon
[12] = system: HCT-116 colon
[13] = system: HCT-15 colon
[14] = system: HL-60(TB) leukemia
[15] = system: HOP-62 NSCLC
[16] = system: HOP-92 NSCLC
[17] = system: HS 578T breast
[18] = system: HT29 colon
[19] = system: IGROV1 ovarian
[20] = system: K-562 leukemia
[21] = system: KM12 colon
[22] = system: LOX IMVI melanoma
[23] = system: M14 melanoma
[24] = system: MALME-3M melanoma
[25] = system: MCF7 breast
[26] = system: MDA-MB-231 breast
[27] = system: MDA-MB-435
[28] = system: MOLT-4 leukemia
[29] = system: NCI-H226 lung
[30] = system: NCI-H23 lung
[31] = system: NCI-H460 lung
[32] = system: NCI-H522 lung
[33] = system: NCI/ADR-RES ovarian
[34] = system: OVCAR-3 ovarian
[35] = system: OVCAR-4 ovarian
[36] = system: OVCAR-5 ovarian
[37] = system: OVCAR-8 ovarian
[38] = system: PC-3 prostate
[39] = system: RPMI-8226 leukemia
[40] = system: RXF 393 renal
[41] = system: SF-268 CNS
[42] = system: SF-295 CNS
[43] = system: SF-539 CNS
[44] = system: SK-MEL-2 melanoma
[45] = system: SK-MEL-28 melanoma
[46] = system: SK-MEL-5 melanoma
[47] = system: SK-OV-3 ovarian
[48] = system: SN12C renal
[49] = system: SNB-19 CNS
[50] = system: SNB-75 CNS
[51] = system: SR leukemia
[52] = system: SW-620 colon
[53] = system: T-47D breast
[54] = system: TK-10 renal
[55] = system: U251 CNS
[56] = system: UACC-257 melanoma
[57] = system: UACC-62 melanoma
[58] = system: UO-31 renal

In the case of `COc1cc2c3c(n(CCCN4CCC[C@H]4C(N)=O)c(=O)c2cc1OC)-c1cc2c(cc1C3=O)OCO2`, the GI50 [1] is reported as 39.2 nM, the TGI [1] is reported as 1530 nM and the TGI [2] is reported as greater than 100000 nM. It also gave a GI50 [3] of 103 nM, a TGI [3] greater than 57300 nM and a GI50 [4] of 27.4 nM. For the same compound, the TGI [4] was 3860 nM, the GI50 [5] was 70.7 nM and the TGI [5] was 13900 nM. The GI50 [6] was 16.2 nM, the TGI [6] was 20700 nM and the GI50 [7] was less than 14.6 nM. For the same compound, the TGI [7] was 4600 nM, the GI50 [8] was 223 nM and the TGI [8] was greater than 100000 nM. The GI50 [9] was 38.2 nM, the TGI [9] was 12600 nM and the TGI [10] was greater than 100000 nM. The GI50 [11] was 224 nM, the TGI [11] was 13800 nM and the GI50 [12] was 32.2 nM. It also gave a TGI [12] of 3670 nM, a GI50 [13] of 318 nM and a TGI [13] of 5800 nM. The GI50 [14] was 37.1 nM, the TGI [14] was 3700 nM and the GI50 [15] was 29.3 nM. It also gave a TGI [15] of 12700 nM, a GI50 [16] of 808 nM and a TGI [16] greater than 29500 nM. It also gave a GI50 [17] greater than 100000 nM, a TGI [17] greater than 100000 nM and a GI50 [18] of 67.4 nM. For the same compound, the TGI [18] was 671 nM, the GI50 [19] was 379 nM and the TGI [19] was 34900 nM. For the same compound, the GI50 [20] was 41 nM, the TGI [20] was 2580 nM and the GI50 [21] was 415 nM. The TGI [21] was 11100 nM, the GI50 [22] was 19.3 nM and the TGI [22] was 485 nM. For the same compound, the GI50 [23] was 35.8 nM, the TGI [23] was 2460 nM and the GI50 [24] was 375 nM. For the same compound, the TGI [24] was greater than 57000 nM, the GI50 [25] was less than 10.7 nM and the TGI [25] was 1420 nM. For the same compound, the GI50 [26] was 1160 nM, the TGI [26] was 16200 nM and the GI50 [27] was 148 nM. For the same compound, the TGI [27] was 14000 nM, the GI50 [28] was less than 12.5 nM and the TGI [28] was 178 nM. It also gave a GI50 [29] of 48.1 nM, a TGI [29] of 1180 nM and a GI50 [30] of 44.8 nM. The TGI [30] was 2320 nM, the GI50 [31] was less than 15.2 nM and the GI50 [32] was 23.6 nM. For the same compound, the TGI [32] was 4480 nM, the GI50 [33] was 154 nM and the TGI [33] was greater than 100000 nM. It also gave a GI50 [34] of 161 nM, a TGI [34] of 3660 nM and a GI50 [35] of 905 nM. The TGI [35] was 5690 nM, the GI50 [36] was 319 nM and the TGI [36] was 26500 nM. The GI50 [37] was 78.3 nM, the TGI [37] was 2710 nM and the GI50 [38] was 329 nM. It also gave a TGI [38] of 22600 nM, a GI50 [39] of 82.9 nM and a TGI [39] of 2360 nM. It also gave a GI50 [40] of 167 nM, a TGI [40] of 2320 nM and a GI50 [41] of 39.8 nM. The TGI [41] was greater than 100000 nM, the GI50 [42] was 17.9 nM and the TGI [42] was 15000 nM. The GI50 [43] was 29.6 nM, the TGI [43] was 541 nM and the GI50 [44] was greater than 100000 nM. It also gave a TGI [44] greater than 100000 nM, a GI50 [45] of 1880 nM and a TGI [45] greater than 100000 nM. The GI50 [46] was 40.7 nM, the TGI [46] was 199 nM and the GI50 [47] was 39.6 nM. For the same compound, the TGI [47] was 1260 nM, the GI50 [48] was 42.2 nM and the TGI [48] was greater than 52400 nM. For the same compound, the GI50 [49] was 40.5 nM, the TGI [49] was greater than 100000 nM and the GI50 [50] was 30.1 nM. For the same compound, the TGI [50] was 1200 nM, the TGI [51] was 540 nM and the GI50 [52] was 89.7 nM. It also gave a TGI [52] greater than 48200 nM, a GI50 [53] of 31.3 nM and a GI50 [54] greater than 42300 nM. For the same compound, the TGI [54] was greater than 100000 nM, the GI50 [55] was 24.9 nM and the TGI [55] was 1890 nM. The GI50 [56] was 232 nM, the TGI [56] was greater than 100000 nM and the GI50 [57] was 19.3 nM. For the same compound, the TGI [57] was 3210 nM, the GI50 [58] was 40.9 nM and the TGI [58] was greater than 41000 nM.
